pIC50: −log10 of the molar value. Where a name gives a salt, the structure may show the parent alone. Read-outs that look alike come from different tables or passages of the source.
Tests used:
[1] = test system: Clinical isolates that have been adapted to cause infection in mice; assay: In vivo antibacterial protection, 7 day survival of infected mice; design: species or system mice strain CD-1; conditions: Mus musculus, 168 h
Excerpt: In Vivo Antibacterial Protection
Female mice strain CD-1, approximately 18-22 grams, were received from Charles River Laboratories and quarantined 7 days prior to use. In addition, mice may be rendered neutropenic using cytoxan.
Clinical isolates that have been adapted to cause infection in mice, are used in the experiment, including infections with strains of E. coli, K. pneumoniae, M. morganii, E. cloacae, S. marcescens, C. freundii, staphylococci, streptococci, P. aeruginosa and N. gonorrhoeae.
Mice are challenged by injecting 0.5 ml intraperitoneally or 0.05 ml intranasally of a predetermined bacterial inoculum suspended in broth, saline or hog gastric mucin (supplemented with dried bovine hemoglobin for N. gonorrhoeae). […] Antibacterial doses (dose concentration prepared by two fold serial dilutions of the antibiotic) are dissolved or suspended in 0.2% aqueous agar or methocel, phosphate buffered saline or an adjuvant are administered orally, subcutaneously or intravenously in the following manner: • a) Orally or subcutaneously: Dose volume of 0.5 ml administered ½ hr after infection. A second dose may be administered 3 hr. after infection for treatment of infections with more virulent organisms. • b) Intravenously: Dose volume of 0.2 ml, administered ½ hr. after infection. For the treatment of infections with more virulent organisms, more doses, up to 48 hr may be administered. (Intravenous dosing will not exceed 3 doses/24 hr period.) • c) Oral pretreatment: Under special circumstances, the pH of the stomach needs to be adjusted in order to increase the gastric stability of the antibiotic. For this purpose, 0.5 ml of phosphate buffered saline (pH7.8, 0.06M) (or specific approved adjuvant) is administered orally ½ hr after infection, followed 5 minutes later by 0.5 ml of antibiotic (also orally) contained in phosphate buffered saline (pH7.8, 0.06M). Animal Species
A detailed explanation as to the number of animals needed for the determination of in vivo efficacy follows: • A) Novel antibiotics are tested at 5 different dose levels with 5 mice per dose level at each of three routes of administration (oral, subcutaneous and intravenous). […] This would require 25 mice/route with 3 routes/antibiotic or 75 mice per novel compound tested. One to two novel antibiotics will be tested per experiment (75-150 mice) • B) The effectiveness of the new compound must be compared to that of a standard, or antibiotic of known effectiveness. Known or previously tested antibiotics are tested at 5 dose levels with 5 mice per dose level by a single route of administration, for a total of 25 mice/antibiotic. Usually 3-6 antibiotics will be tested per experiment. (75-150 mice). • C) Untreated controls—In each of the above tests, untreated animals are infected with 3 different concentrations of bacterial inoculum with 10 mice per concentration (30 mice total in each and every test). These untreated controls are used to determine and maintain the infection level between 10-100 LD50s as required for test to test comparison and validity. Determination of Protective Effects of Antibacterial Agents:
The protective effects of the antibacterial agent(s) are measured by the survival of the infected untreated as compared to the treated animals. […] A census of survivors is taken twice daily and at that time dead as well as moribund animals are removed. […] The test is performed three times on separate days to provide a statistically valid number of animals and to minimize variation in test results on a day to day and test to test basis.

[2] = target: class C enzyme AmpC (Enterobacter cloacae, UniProt P05364); assay: biochemical; design: species or system Enterobacter cloaca; conditions: for IC50: enzyme 2.1 nM, 10 minutes preincubation at 25° C., nitrocefin 50 μg/ml, pH 7.0, read-out: IC50 (nM) Class C AmpC
Description: (§1) IC50 Determination for the Penem Inhibitor
(§2) β-Lactamase inhibitory activity of the penem inhibitors was determined spectrophotometrically as described by Bush et al., [Bush, K., Macalintal, C., Rasmussen, B. A., Lee, V. and Yang, Y. Antimicrobial Agents and Chemotherapy 1993, 37, 851]. Homogeneously purified class A β-lactamases TEM-1 from E. coli and Imi-1 from Enterobacter cloacae, class B enzyme CcrA from Bacteroides fragilis and class C enzyme AmpC from Enterobacter cloaca were employed in the assay. The enzyme concentrations for TEM-1, Imi-1, CcrA and AmpC were 4.3, 7.1, 1.2 and 2.1 nM, respectively. A wide range of inhibitor concentrations were prepared in 50 mM PO4, pH 7.0 to include the possible IC50 values. The substrate used to initiate the enzyme reaction was nitrocefin at 50 μg/ml in the same buffer as the inhibitor. Initially the enzyme and inhibitor (20 μl each) were preincubated for 10 minutes at 25° C. prior to the addition of 160 μl volume of nitrocefin. Initial rates of hydrolysis were monitored for 5 minutes at 495 nm using a Molecular Devices Spectra Max 250 with kinetic protocol of SoftMax Program. Readings from the Spectra Max 250 were exported and transferred to Microsoft Excel. The percent of inhibition of each inhibitor concentration was calculated based on the control enzyme activity. The inhibitor concentration that caused a 50% reduction in the enzymatic activity (IC50) was determined graphically.

[3] = target: class B enzyme CcrA (Bacteroides fragilis, UniProt P25910); assay: IC50 determination, β-lactamase inhibition (nitrocefin, spectrophotometric); type: biochemical; conditions: for IC50: enzyme 1.2 nM, 10 minutes preincubation at 25° C., nitrocefin 50 μg/ml, pH 7.0, read-out: IC50 (nM) Class B Ccr
Description: as §1, §2

[4] = target: class A β-lactamase Imi-1 (Enterobacter cloacae, UniProt Q46991); assay: as above; type: biochemical; conditions: enzyme 7.1 nM; 10 minutes preincubation at 25° C.; nitrocefin 50 μg/ml; pH 7.0; read-out: IC50 (nM) Class A Imi
Description: as §1, §2

[5] = target: class A β-lactamase TEM-1 (Escherichia coli, UniProt P62593); assay: as above; type: biochemical, E. coli; conditions: enzyme 4.3 nM; 10 minutes preincubation at 25° C.; nitrocefin 50 μg/ml; pH 7.0
Description: as §1, §2

[6] = Ratio of Piperacillin vs. Inhibitor 4:1, read-out: ED50
[7] = Ratio of Piperacillin vs. Inhibitor not given, read-out: ED50

Chain of class A β-lactamase Imi-1 (Q46991 28-292): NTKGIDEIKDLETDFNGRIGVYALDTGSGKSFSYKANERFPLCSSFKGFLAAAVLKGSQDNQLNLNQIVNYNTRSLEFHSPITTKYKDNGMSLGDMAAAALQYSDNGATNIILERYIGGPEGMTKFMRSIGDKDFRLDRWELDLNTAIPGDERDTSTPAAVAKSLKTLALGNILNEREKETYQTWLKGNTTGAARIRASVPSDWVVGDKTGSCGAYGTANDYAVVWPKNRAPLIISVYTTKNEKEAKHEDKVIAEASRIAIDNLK
Chain of class B enzyme CcrA (P25910 19-249): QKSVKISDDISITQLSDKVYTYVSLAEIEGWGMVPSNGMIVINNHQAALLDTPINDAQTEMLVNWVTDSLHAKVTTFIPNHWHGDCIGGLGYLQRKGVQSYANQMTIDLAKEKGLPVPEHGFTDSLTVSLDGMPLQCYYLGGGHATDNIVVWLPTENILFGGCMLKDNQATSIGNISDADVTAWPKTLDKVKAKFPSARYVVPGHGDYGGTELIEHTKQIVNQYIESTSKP
Chain of class C enzyme AmpC (P05364 21-381): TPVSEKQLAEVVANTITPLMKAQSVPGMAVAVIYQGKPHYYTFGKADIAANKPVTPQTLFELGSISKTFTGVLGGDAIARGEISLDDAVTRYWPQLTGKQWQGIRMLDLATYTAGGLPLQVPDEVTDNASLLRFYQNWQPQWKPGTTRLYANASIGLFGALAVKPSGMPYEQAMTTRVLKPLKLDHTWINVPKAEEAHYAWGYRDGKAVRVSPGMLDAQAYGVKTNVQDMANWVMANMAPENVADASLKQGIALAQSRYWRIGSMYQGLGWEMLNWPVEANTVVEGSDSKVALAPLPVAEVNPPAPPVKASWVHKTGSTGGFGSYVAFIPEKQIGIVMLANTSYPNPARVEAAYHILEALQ
Chain of class A β-lactamase TEM-1 (P62593 24-286 limits assumed): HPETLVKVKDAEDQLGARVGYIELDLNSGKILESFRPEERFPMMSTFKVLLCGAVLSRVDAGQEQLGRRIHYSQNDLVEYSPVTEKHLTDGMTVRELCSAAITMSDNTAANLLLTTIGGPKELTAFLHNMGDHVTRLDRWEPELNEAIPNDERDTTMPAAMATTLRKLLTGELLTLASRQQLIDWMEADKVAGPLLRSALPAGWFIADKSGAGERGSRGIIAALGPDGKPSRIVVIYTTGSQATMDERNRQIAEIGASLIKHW

Structure (SMILES)	ED50 [1, 6]	pIC50 [2]	IC50 [3]	IC50 [4]	IC50 [5]	ED50 [1, 7]	IC50 [2]	pIC50 [3]
O=C([O-])C1=CS[C@@H]2/C(=C\c3cc4n(n3)CCSC4)C(=O)N12.[Na+] [Example 11, (5R)(6Z)-6-(6,7-Dihydro-4H-pyrazolo[5,1-c][1,4]thiazin-2-ylmethylene)-7-oxo-4-thia-1-azabicyclo[3.2.0]hept-2-ene-2-carboxylic acid, sodium salt]	13.9 mg/kg	8.92	61 nM	18 nM	1 nM			
O=C([O-])C1=CS[C@@H]2/C(=C\c3cc4n(n3)CSC4)C(=O)N12.[Na+] [Example 12, (5R)(6Z)-7-Oxo-6-(4H-5-thia-1,6a-diazapentalen-2-ylmethylene)-4-thia-1-azabicyclo[3.2.0]hept-2-ene-2-carboxylic acid, sodium salt]	20 mg/kg	8.82	110 nM	56 nM	1.4 nM			
O=C([O-])C1=CS[C@@H]2/C(=C\c3cn4c(n3)CSC4)C(=O)N12.[Na+] [Example 13, (5R)(6Z)-6-(7H-Imidazo[1,2-c]thiazol-2-ylmethylene)-7-oxo-4-thia-1-azabicyclo[3.2.0]hept-2-ene-2-carboxylic acid, sodium salt]		8.51	160 nM	16 nM	2.9 nM	18 mg/kg		
CN1CCc2sc(C=C3C(=O)N4C(C(=O)O)=CSC34)cc2C1 (stereo not drawn) [Example 17, 6-(5-Methyl-4,5,6,7-tetrahydro-thieno[3,2-c]pyridin-2-ylmethylene)-7-oxo-4-thia-1-aza-bicyclo[3.2.0]hept-2-ene-2-carboxylic acid]	37.9 mg/kg		28 nM	24 nM	12 nM		26 nM	
O=C(O)C1=CSC2C(=Cc3cn4c(n3)CCCCC4)C(=O)N12 (stereo not drawn) [Example 19, 7-Oxo-6-(6,7,8,9-tetrahydro-5H-imidazo[1,2-a]azepin-2-ylmethylene)-4-thia-1-aza-bicyclo[3.2.0]hept-2-ene-2-carboxylic acid]	59.2 mg/kg		170 nM	2700 nM	4.8 nM		4.6 nM	
O=C(O)C1=CS[C@@H]2/C(=C\c3cc4n(n3)CCS(=O)(=O)C4)C(=O)N12 [Example 24, (5R),(6Z)-6-(5,5-Dioxo-4,5,6,7-tetrahydro-5λ^6-pyrazolo[5,1-c][1,4]thiazin-2-ylmethylene)-7-oxo-4-thia-1-azabicyclo[3.2.0]hept-2-ene-2-carboxylic acid, sodium salt]				56 nM	1.1 nM	64 mg/kg	1.5 nM	8.40
O=C(O)C1=CS[C@@H]2/C(=C\c3cc4n(n3)CCNC4)C(=O)N12 [Example 25, (5R),(6Z)-7-Oxo-6-(4,5,6,7-tetrahydropyrazolo[1,5-a]pyrazin-2-ylmethylene)-4-thia-1-aza-bicyclo[3.2.0]hept-2-ene-2-carboxylic acid, sodium salt]			162 nM	123 nM	1.1 nM	30 mg/kg	2.7 nM	
CC1(C)Cc2cc(/C=C3/C(=O)N4C(C(=O)[O-])=CS[C@H]34)nn2C1.[Na+] [Example 26, (5R)(6Z)-6-(5,5-Dimethyl-4H-1,6a-diazapentalen-2-ylmethylene)-7-oxo-4-thia-1-azabicyclo[3.2.0]hept-2-ene-2-carboxylic acid, sodium salt]		8.64	89 nM	54 nM	0.73 nM	30 mg/kg		
O=C(O)C1=CS[C@@H]2/C(=C\c3cc4c(o3)CCC4)C(=O)N12 [Example 27, (5R),(6Z)-6-(5,6-Dihydro-4H-cyclopenta[b]furan-2-ylmethylene)-7-oxo-4-thia-1-azabicyclo[3.2.0]hept-2-ene-2-carboxylic acid, sodium salt]			73 nM	5.5 nM	2 nM	28 mg/kg	2 nM	

— patent publication US7812014B2, “Bicyclic 6-alkylidene-penems as β-lactamase inhibitors” (priority 2002, dated 2010)
